From patent publication US8211445B2, “PSM peptides as vaccine targets against methicillin-resistant Staphylococcus” (The United States of America, as represented by the …, priority 2007, dated 2012)

Tested on: human neutrophils
Assay: Calcium ion flux in neutrophils (Fluo-3-AM)
Format: cell-based
Conditions: PSM-mec vs PSMα3; range similar to other α-type PSMs, in general higher than β-type PSMs (FIG. 21B)
Procedure: Neutrophils were subjected to a brief hypotonic shock with pyrogen-free water (Sigma), washed, and suspended at 5×10^6 cells/ml in HBSS containing 0.05% human serum albumin (HSA; CLB). Chemotaxis of neutrophils was determined by using fluorescently-labeled neutrophils that migrated through a membrane fitted into an insert of a 24-well microtiter plate transwell system (Costar) containing a prewetted 3-μm-pore-size polycarbonate filter as described (de Haas et al., J Exp Med 199, 687-95, 2004). For measurement of calcium ion fluxes, 5×10^6 neutrophils/ml were loaded with 2 μM Fluo-3-AM (Molecular Probes) in RPMI containing 0.05% HSA (RPMI-HSA) for 20 minutes at room temperature under agitation, washed twice with buffer, and resuspended in RPMI-HSA at 10^6 cells/ml. Calcium fluxes were analyzed with a FACScalibur (Becton Dickinson).
Neutrophils were subjected to a brief hypotonic shock with pyrogen-free water (Sigma), washed, and suspended at 5×10^6 cells/ml in HBSS containing 0.05% human serum albumin (HAS; CLB). Chemotaxis of neutrophils was determined by using fluorescently-labeled neutrophils that migrated through a membrane fitted into an insert of a 24-well microtiter plate transwell system (Costar) containing a prewetted 3-μm-pore-size polycarbonate filter. […] Calcium fluxes were analyzed with a FACScalibur (Becton Dickinson). […]

Question: For fMEFVAKLFKFFKDLLGKFLGNN [PSMα3], which calcium flux is on record?
Answer: most potent
